Where two headings read alike, the source gives them in different places. Numbered stars: 1 amine (or outer) side, 2 acyl side, 3 side chain; on linkers, the order of the positions; unused ones are H or OH. Bridge positions count the residues as written; N and C are the ends. Square brackets hold non-standard residues; d marks the D form. Peptide text beside a SMILES is read from it. * marks the point of attachment. C20 diacid = O=C(O)CCCCCCCCCCCCCCCCCCC(=O)*; γGlu = O=C(O)[C@H](CCC(=O)[*:2])N[*:1]; NMeI = CC[C@H](C)[C@H](NC)C(=O)O; Sar = CNCC(=O)O
Experiments:
[1] = biological target: T1, human calcitonin receptor (hCTR2) (Homo sapiens, UniProt P30988); test: hCTR2 assay: induction of cAMP (AlphaScreen cAMP Assay kit) in COS7 cells expressing hCTR2; assay type: cell-based; settings: cAMP induction in COS7 cells expressing hCTR2; average of a minimum of 3 determinations; read-out: hCTR2 EC50
T1 construct: expressed in transfected cells
T1 sequence (P30988 25-474): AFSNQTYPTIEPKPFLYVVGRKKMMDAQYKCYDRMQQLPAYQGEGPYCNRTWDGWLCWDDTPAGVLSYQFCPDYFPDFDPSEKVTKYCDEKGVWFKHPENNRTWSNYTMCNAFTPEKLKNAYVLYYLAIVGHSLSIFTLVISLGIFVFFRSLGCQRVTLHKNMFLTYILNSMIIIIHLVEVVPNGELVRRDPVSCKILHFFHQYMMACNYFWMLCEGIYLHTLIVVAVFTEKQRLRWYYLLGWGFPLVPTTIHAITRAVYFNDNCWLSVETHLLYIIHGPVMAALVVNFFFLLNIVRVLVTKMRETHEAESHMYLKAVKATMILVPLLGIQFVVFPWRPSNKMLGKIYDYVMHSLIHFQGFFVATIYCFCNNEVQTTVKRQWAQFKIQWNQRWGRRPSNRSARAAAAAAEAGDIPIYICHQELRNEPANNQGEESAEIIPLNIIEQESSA
How it was run: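 Stable hCTR2 clone in RAMP-naive COS7 cells; peptides titrated in Tyrode buffer (pH 7.4) with 100 µM IBMX, 0.1% casein, 15 min at 37° C. cAMP read by AlphaScreen after lysis; EC50 and efficacy relative to pramlintide from 4PL fit.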

[2] = Solubility assessment (turbidity absorbance at 325 nm); assay type: physicochemical; settings: stock 2 mg/ml diluted 1:1, ambient temperature (typically 25°C), n=1; for Solubility, Acetate buffer pH 4: 100 mM acetate buffer pH 4.0; for Solubility, Acetate buffer pH 5: 100 mM acetate buffer pH 5.0; for Solubility, Histidine buffer pH 6: 100 mM histidine buffer pH 6.0; for Solubility, Histidine buffer pH 7: 100 mM histidine buffer pH 7.0; for Solubility, Phosphate buffer pH 6: 100 mM phosphate buffer pH 6.0; for Solubility, Phosphate buffer pH 7: 100 mM phosphate buffer pH 7.0; for Solubility, Phosphate buffer pH 7.5: 100 mM phosphate buffer pH7.5
How it was run: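 Stock 2 mg/ml peptide, H2O/HCl pH 2.5; 1:1 into 100 mM buffers: acetate pH 4.0/5.0, His pH 6.0/7.0, phosphate pH 6.0/7.0/7.5. A280 + A325, ~25°C, n=1. Soluble ≥ 1 mg/ml if A325 ≤ 0.02.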

[3] = biological target: T2, human amylin receptor 3 (hAMYR3) consisting of hCTR2 co-expressed with human Receptor Activity Modifying Protein 3 (hRAMP3) (Homo sapiens, UniProt O60896+P30988); test: hAMYR3 assay: induction of cAMP (AlphaScreen cAMP Assay kit) in COS7 cells expressing hAMYR3; assay type: cell-based
T2 construct: expressed in transfected cells
T2 sequence (P30988 25-474): T1 sequence (P30988 25-474)
T2 sequence (O60896 24-148 partner): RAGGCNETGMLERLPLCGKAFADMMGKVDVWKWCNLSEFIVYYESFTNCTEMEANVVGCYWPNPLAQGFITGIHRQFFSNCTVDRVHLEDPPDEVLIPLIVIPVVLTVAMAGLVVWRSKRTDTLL
How it was run: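 Stable COS7 clone co-expressing hCTR2 and hRAMP3, stimulated 15 min at 37° C with increasing peptide in Tyrode buffer pH 7.4 with 100 µM IBMX and 0.1% casein. cAMP measured by AlphaScreen after lysis; EC50 and % efficacy versus pramlintide from 4PL fit.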

EC50 ([3]; cAMP induction in COS7 cells expressing hAMYR3, average of a minimum of 3 determinations, read-out: hAMY R3 EC50) [nM] | Structure (SMILES) | EC50 [1] [nM] | Solubility, Acetate buffer pH 4 [2] | Solubility, Acetate buffer pH 5 [2] | Solubility, Histidine buffer pH 6 [2] | Solubility, Histidine buffer pH 7 [2] | Solubility, Phosphate buffer pH 6 [2] | Solubility, Phosphate buffer pH 7 [2] | Solubility, Phosphate buffer pH 7.5 [2] | EC50 [3] [nM]
0.58 | CC[C@H](C)[C@@H](C(=O)N[C@@H](CC(C)C)C(=O)N[C@@H](CO)C(=O)N[C@@H](CO)C(=O)N[C@H](C(=O)N[C@@H](CCC(=O)O)C(=O)N[C@H](C(=O)NCC(=O)N[C@@H](CO)C(=O)N[C@@H](CCC(=O)O)C(=O)N[C@H](C(=O)N1CCC[C@H]1C(N)=O)[C@@H](C)O)C(C)C)[C@@H](C)O)N(C)C(=O)[C@H](C)NC(=O)CN(C)C(=O)[C@H](Cc1ccccc1)NC(=O)[C@H](CO)NC(=O)[C@H](CO)NC(=O)[C@H](CO)NC(=O)[C@H](CO)NC(=O)[C@H](CCCNC(=N)N)NC(=O)[C@H](Cc1c[nH]cn1)NC(=O)[C@H](CC(C)C)NC(=O)[C@H](Cc1ccccc1)NC(=O)[C@H](CCC(=O)O)NC(=O)[C@H](C)NC(=O)[C@H](CC(C)C)NC(=O)[C@H](CCCNC(=N)N)NC(=O)[C@H](CCC(N)=O)NC(=O)[C@@H](NC(=O)[C@H](C)NC(=O)[C@@H]1CSSC[C@H](NC(=O)[C@H](CCCNC(=N)N)NC(=O)CC[C@H](NC(=O)CCCCCCCCCCCCCCCCCCC(=O)O)C(=O)O)C(=O)N[C@@H](CC(=O)O)C(=O)N[C@@H]([C@@H](C)O)C(=O)N[C@@H](C)C(=O)N[C@@H]([C@@H](C)O)C(=O)N1)[C@@H](C)O [Compound 127, [19CD]-isoGlu-RC()DTATC()ATQRLAEFLHRSSSSF-Gly(Me)-A-Ile(Me)-LSSTEVGSETP-NH2] ({C20 diacid-γGlu}-RCDTATCATQRLAEFLHRSSSSF[Sar]A[NMeI]LSSTEVGSETP-NH2; disulfide 2-7) | 0.19 | SS (SS indicates solubility ≥ 1mg/ml) | SS (SS indicates solubility ≥ 1mg/ml) | SS (SS indicates solubility ≥ 1mg/ml) | SS (SS indicates solubility ≥ 1mg/ml) | SS (SS indicates solubility ≥ 1mg/ml) | SS (SS indicates solubility ≥ 1mg/ml) | SS (SS indicates solubility ≥ 1mg/ml) | 
 | CC[C@H](C)[C@@H](C(=O)N[C@@H](CC(C)C)C(=O)N[C@@H](CO)C(=O)N[C@@H](CO)C(=O)N[C@H](C(=O)N[C@@H](CCC(=O)O)C(=O)N[C@H](C(=O)NCC(=O)N[C@@H](CO)C(=O)N[C@@H](CCC(=O)O)C(=O)N[C@H](C(=O)N1CCC[C@H]1C(N)=O)[C@@H](C)O)C(C)C)[C@@H](C)O)N(C)C(=O)[C@H](C)NC(=O)CN(C)C(=O)[C@H](Cc1ccccc1)NC(=O)[C@H](CO)NC(=O)[C@H](CO)NC(=O)[C@H](CO)NC(=O)[C@H](CO)NC(=O)[C@H](CCCNC(=N)N)NC(=O)[C@H](Cc1c[nH]cn1)NC(=O)[C@H](CC(C)C)NC(=O)[C@H](Cc1ccccc1)NC(=O)[C@H](CCC(=O)O)NC(=O)[C@H](C)NC(=O)[C@H](CC(C)C)NC(=O)[C@H](CCCNC(=N)N)NC(=O)[C@H](CCC(N)=O)NC(=O)[C@@H](NC(=O)[C@H](C)NC(=O)[C@@H]1CSSC[C@H](NC(=O)[C@H](CCCNC(=N)N)NC(=O)CC[C@H](NC(=O)CCCCCCCCCCCCCCCCCCC(=O)O)C(=O)O)C(=O)N2CCC[C@H]2C(=O)N[C@@H]([C@@H](C)O)C(=O)N[C@@H](C)C(=O)N[C@@H]([C@@H](C)O)C(=O)N1)[C@@H](C)O [Compound 129, [19CD]-isoGlu-RC()PTATC()ATQRLAEFLHRSSSSF-Gly(Me)-A-Ile(Me)-LSSTEVGSETP-NH2] ({C20 diacid-γGlu}-RCPTATCATQRLAEFLHRSSSSF[Sar]A[NMeI]LSSTEVGSETP-NH2; disulfide 2-7) | 0.15 | SS (SS indicates solubility ≥ 1mg/ml) | SS (SS indicates solubility ≥ 1mg/ml) | SS (SS indicates solubility ≥ 1mg/ml) | SS (SS indicates solubility ≥ 1mg/ml) | SS (SS indicates solubility ≥ 1mg/ml) | SS (SS indicates solubility ≥ 1mg/ml) | SS (SS indicates solubility ≥ 1mg/ml) | 0.15
 | CC[C@H](C)[C@@H](C(=O)N[C@@H](CC(C)C)C(=O)N[C@@H](CO)C(=O)N[C@@H](CO)C(=O)N[C@H](C(=O)N[C@@H](CCC(=O)O)C(=O)N[C@H](C(=O)NCC(=O)N[C@@H](CO)C(=O)N[C@@H](CCC(=O)O)C(=O)N[C@H](C(=O)N1CCC[C@H]1C(N)=O)[C@@H](C)O)C(C)C)[C@@H](C)O)N(C)C(=O)[C@H](C)NC(=O)CN(C)C(=O)[C@H](Cc1ccccc1)NC(=O)[C@H](CO)NC(=O)[C@H](CO)NC(=O)[C@H](CO)NC(=O)[C@H](CO)NC(=O)[C@H](CCCNC(=N)N)NC(=O)[C@H](Cc1c[nH]cn1)NC(=O)[C@H](CC(C)C)NC(=O)[C@H](Cc1ccccc1)NC(=O)[C@H](CCC(=O)O)NC(=O)[C@H](C)NC(=O)[C@H](CC(C)C)NC(=O)[C@H](CCCNC(=N)N)NC(=O)[C@H](CCC(N)=O)NC(=O)[C@@H](NC(=O)[C@H](C)NC(=O)[C@@H]1CSSC[C@H](NC(=O)[C@H](CCCNC(=N)N)NC(=O)CC[C@H](NC(=O)CCCCCCCCCCCCCCCCCCC(=O)O)C(=O)O)C(=O)NCC(=O)N[C@@H]([C@@H](C)O)C(=O)N[C@@H](C)C(=O)N[C@@H]([C@@H](C)O)C(=O)N1)[C@@H](C)O [Compound 130, [19CD]-isoGlu-RC()GTATC()ATQRLAEFLHRSSSSF-Gly(Me)-A-Ile(Me)-LSSTEVGSETP-NH2] ({C20 diacid-γGlu}-RCGTATCATQRLAEFLHRSSSSF[Sar]A[NMeI]LSSTEVGSETP-NH2; disulfide 2-7) | 0.11 | SS (SS indicates solubility ≥ 1mg/ml) | SS (SS indicates solubility ≥ 1mg/ml) | SS (SS indicates solubility ≥ 1mg/ml) | SS (SS indicates solubility ≥ 1mg/ml) | SS (SS indicates solubility ≥ 1mg/ml) | SS (SS indicates solubility ≥ 1mg/ml) | SS (SS indicates solubility ≥ 1mg/ml) | 0.15

Source: patent EP3046573B1, “AMYLIN ANALOGUES” (Zealand Pharma A/S, priority 2013, dated 2015)
